Laboratory results published in patent US11548870B2, “Compounds useful as inhibitors of helios protein” (Bristol-Myers Squibb Company, priority 2019, dated 2023).

How the values were obtained:
[1] = target: T1, Helios (Homo sapiens, UniProt Q96SW2+Q9UKS7); experiment: Helios Cellular Degradation Assay (flow cytometry, Helios-PE antibody staining, 72 h); type: cell-based; conditions: Jurkat cells, 72 h incubation, flow cytometry; for Dmax: Jurkat, read-out: Helios Dmax
T1 construct: fluorescently labelled antibodies against Helios and Ikaros; endogenous in cells; host or cells: Jurkat cells
Summary of the method: (§1)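 Flow cytometry of fixed, permeabilized Jurkat cells stained with anti-Helios-PE and anti-Ikaros-Alexa488 (1 h, room temperature) measured remaining protein. Treatment lasted 72 h at 37 °C, 5% CO2, at 80,000 cells/well in RPMI with 10% FBS.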

[2] = target: T2, Ikaros (Homo sapiens, UniProt Q13422); experiment: Helios Cellular Degradation Assay, Ikaros readout (flow cytometry, Ikaros-Alexa488 antibody staining, 72 h); type: cell-based; conditions: Jurkat cells, 72 h incubation, flow cytometry; for Dmax: Jurkat, read-out: Ikaros Dmax
T2 construct: fluorescently labelled antibodies against Helios and Ikaros; endogenous in cells; host or cells: Jurkat cells
Summary of the method: as §1

T1 sequence (Q9UKS7 whole entry): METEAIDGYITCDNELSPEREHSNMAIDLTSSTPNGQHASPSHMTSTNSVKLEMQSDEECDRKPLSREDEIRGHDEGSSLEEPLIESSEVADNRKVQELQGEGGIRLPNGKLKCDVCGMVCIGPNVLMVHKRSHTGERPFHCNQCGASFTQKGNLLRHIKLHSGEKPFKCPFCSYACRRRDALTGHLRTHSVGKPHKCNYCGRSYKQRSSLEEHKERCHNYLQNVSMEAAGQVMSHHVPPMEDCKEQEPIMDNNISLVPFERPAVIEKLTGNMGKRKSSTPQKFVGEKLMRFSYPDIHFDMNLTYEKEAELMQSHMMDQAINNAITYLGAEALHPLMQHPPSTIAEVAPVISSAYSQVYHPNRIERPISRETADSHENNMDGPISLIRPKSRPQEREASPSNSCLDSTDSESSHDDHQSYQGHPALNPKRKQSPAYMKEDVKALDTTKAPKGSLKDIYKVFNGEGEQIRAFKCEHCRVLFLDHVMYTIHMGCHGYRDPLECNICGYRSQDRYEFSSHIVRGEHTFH
T1 sequence (Q96SW2 whole entry): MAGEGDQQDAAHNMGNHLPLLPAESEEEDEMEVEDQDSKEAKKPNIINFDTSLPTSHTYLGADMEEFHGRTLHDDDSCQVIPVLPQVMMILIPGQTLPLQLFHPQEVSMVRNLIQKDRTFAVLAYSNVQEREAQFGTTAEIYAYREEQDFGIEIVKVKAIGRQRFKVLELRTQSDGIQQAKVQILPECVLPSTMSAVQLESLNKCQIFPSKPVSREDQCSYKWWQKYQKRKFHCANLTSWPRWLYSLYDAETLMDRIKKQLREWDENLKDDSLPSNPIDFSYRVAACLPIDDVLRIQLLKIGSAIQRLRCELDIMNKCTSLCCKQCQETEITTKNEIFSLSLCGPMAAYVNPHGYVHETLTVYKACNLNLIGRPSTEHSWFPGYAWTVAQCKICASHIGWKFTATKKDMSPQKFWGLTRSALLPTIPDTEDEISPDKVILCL
T1 sequence (Q16531 whole entry partner): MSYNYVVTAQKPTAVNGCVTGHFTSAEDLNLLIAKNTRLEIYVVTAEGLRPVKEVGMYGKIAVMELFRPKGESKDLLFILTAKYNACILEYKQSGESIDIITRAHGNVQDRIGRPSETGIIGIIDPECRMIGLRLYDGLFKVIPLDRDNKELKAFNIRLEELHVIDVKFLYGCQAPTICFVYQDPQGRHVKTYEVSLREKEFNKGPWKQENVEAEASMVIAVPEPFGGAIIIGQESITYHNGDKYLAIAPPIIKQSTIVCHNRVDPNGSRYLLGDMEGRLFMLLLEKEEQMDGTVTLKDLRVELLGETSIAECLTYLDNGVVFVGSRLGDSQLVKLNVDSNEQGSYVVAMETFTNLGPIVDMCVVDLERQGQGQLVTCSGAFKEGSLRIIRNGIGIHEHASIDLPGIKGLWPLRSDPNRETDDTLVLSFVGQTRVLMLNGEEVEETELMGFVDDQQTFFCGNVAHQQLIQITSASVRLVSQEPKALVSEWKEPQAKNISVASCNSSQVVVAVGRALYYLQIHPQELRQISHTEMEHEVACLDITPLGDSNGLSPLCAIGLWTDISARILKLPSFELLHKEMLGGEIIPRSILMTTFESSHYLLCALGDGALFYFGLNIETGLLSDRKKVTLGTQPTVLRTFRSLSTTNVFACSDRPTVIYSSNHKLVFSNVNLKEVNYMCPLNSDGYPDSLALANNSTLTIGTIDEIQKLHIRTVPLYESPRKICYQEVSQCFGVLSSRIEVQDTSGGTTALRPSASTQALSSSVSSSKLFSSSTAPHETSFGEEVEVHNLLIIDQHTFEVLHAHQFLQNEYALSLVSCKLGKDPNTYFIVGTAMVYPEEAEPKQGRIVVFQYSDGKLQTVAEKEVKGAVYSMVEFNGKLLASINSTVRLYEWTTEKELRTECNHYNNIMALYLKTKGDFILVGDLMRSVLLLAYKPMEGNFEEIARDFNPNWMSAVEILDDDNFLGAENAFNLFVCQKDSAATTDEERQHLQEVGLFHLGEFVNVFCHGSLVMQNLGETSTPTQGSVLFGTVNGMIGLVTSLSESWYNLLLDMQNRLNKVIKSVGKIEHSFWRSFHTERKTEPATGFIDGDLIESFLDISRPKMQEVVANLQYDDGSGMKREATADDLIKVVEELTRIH
T2 sequence (Q96SW2 whole entry partner): as the sequence (Q96SW2 whole entry) above
T2 sequence (Q16531 whole entry partner): as the sequence (Q16531 whole entry partner) above
T2 sequence (Q13422 whole entry): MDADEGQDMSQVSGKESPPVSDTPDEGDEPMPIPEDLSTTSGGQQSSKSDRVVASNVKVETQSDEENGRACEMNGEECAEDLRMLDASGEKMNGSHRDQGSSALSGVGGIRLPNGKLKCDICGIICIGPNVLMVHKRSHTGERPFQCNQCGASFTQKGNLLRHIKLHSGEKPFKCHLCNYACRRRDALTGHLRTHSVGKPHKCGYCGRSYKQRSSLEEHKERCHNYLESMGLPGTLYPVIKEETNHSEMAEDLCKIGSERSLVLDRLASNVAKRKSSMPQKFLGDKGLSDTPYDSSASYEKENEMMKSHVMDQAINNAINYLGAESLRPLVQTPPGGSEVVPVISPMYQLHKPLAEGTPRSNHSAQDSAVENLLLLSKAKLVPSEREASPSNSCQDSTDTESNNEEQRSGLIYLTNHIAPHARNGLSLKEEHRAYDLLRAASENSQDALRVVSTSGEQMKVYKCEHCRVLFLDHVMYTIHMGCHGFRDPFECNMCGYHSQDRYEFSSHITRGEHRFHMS

SMILES | DC50 [1] | Dmax [1] | DC50 [2] | Dmax [2]
CCOC1CN(Cc2ccnc(-c3ccc4c(c3)CN(C3CCC(=O)NC3=O)C4=O)c2)C1 (stereo not drawn) [Example 198, 3-(5-(4-((3-ethoxyazetidin-1-yl)methyl)pyridin-2-yl)-1-oxoisoindolin-2-yl) piperidine-2,6-dione] | 42 nM | 75% | > 10000 nM | 18%
Cc1ccc(C2CCN(Cc3ccnc(-c4ccc5c(c4)CN(C4CCC(=O)NC4=O)C5=O)c3)CC2)cc1 (stereo not drawn) [Example 199, 3-(1-oxo-5-(4-((4-(p-tolyl)piperidin-1-yl)methyl)pyridin-2-yl)isoindolin-2-yl)piperidine-2,6-dione] | 130 nM | 60% | > 10000 nM | 3%
CN(C)C(=O)C1CN(Cc2ccnc(-c3ccc4c(c3)CN(C3CCC(=O)NC3=O)C4=O)c2)C1 (stereo not drawn) [Example 202, 1-((2-(2-(2,6-dioxopiperidin-3-yl)-1-oxoisoindolin-5-yl)pyridin-4-yl)methyl)-N,N-dimethylazetidine-3-carboxamide] | 190 nM | 69% | > 10000 nM | 22%
O=C1CCC(N2Cc3cc(-c4cc(CN5CC(c6cccnc6)C5)ccn4)ccc3C2=O)C(=O)N1 (stereo not drawn) [Example 203, 3-(1-oxo-5-(4-((3-(pyridin-3-yl)azetidin-1-yl)methyl)pyridin-2-yl)isoindolin-2-yl)piperidine-2,6-dione] | 440 nM | 69% | > 10000 nM | 20%
NC(=O)C1CCN1Cc1ccnc(-c2ccc3c(c2)CN(C2CCC(=O)NC2=O)C3=O)c1 (stereo not drawn) [Example 206, 1-((2-(2-(2,6-dioxopiperidin-3-yl)-1-oxoisoindolin-5-yl)pyridin-4-yl)methyl)azetidine-2-carboxamide] | 740 nM | 66% | > 10000 nM | 9%
O=C1CCC(N2Cc3c(ccc(-c4cc(CN5CC(c6ccccc6)C5)ccn4)c3F)C2=O)C(=O)N1 (stereo not drawn) [Example 208, 3-(4-Fluoro-1-oxo-5-(4-((3-phenylazetidin-1-yl)methyl)pyridin-2-yl)isoindolin-2-yl)piperidine-2,6-dione] | 3 nM | 88% | > 10000 nM | 13%
